Laboratory results as given in paper PMC10584170, “Machine learning-based phenotypic imaging to characterise the targetable biology of Plasmodium falciparum male gametocytes for the development of transmission-blocking antimalarials” (PLOS Pathogens, 2023).

Columns and labels:
[1] = test system: P. falciparum male gametocytes; experiment: P. falciparum Dual Gamete Formation Assay (PfDGFA), male readout (exflagellation); assay type: cell-based, Plasmodium falciparum NF54; conditions: for Average inhibition male (%): average of replicates; for % inhibition male (individual replicates) R1: replicate R1; for % inhibition male (individual replicates) R3: replicate R3; for % inhibition male (individual replicates) R4: replicate R4; for Activity: hit = >50% inhibition in male or female readout in at least 3 replicates, 0 = no class assigned
Outline: (§1)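 Day-14 NF54 gametocytes were incubated with compound for 24 h at 37°C under 1% O2/3% CO2/96% N2. Gametogenesis was triggered with ookinete medium (0.1 μM xanthurenic acid) plus Cy3-anti-Pfs25, and exflagellation was imaged by brightfield after cooling to 4°C then 28°C. Females were imaged by Pfs25 fluorescence 24 h later at 28°C.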

[2] = test system: P. falciparum female gametocytes; experiment: P. falciparum Dual Gamete Formation Assay (PfDGFA), female readout (Pfs25-positive female gametes); assay type: cell-based, Plasmodium falciparum NF54; conditions: for Average inhibition female (%): average of replicates; for % inhibition female (individual replicates) R1: replicate R1; for % inhibition female (individual replicates) R3: replicate R3; for % inhibition female (individual replicates) R4: replicate R4
Outline: as §1

[3] = PfDGFA at 2µM, 24h preincubation with gametocytes
[4] = number of replicates with >50% inhibition in the male readout, 2µM
[5] = number of replicates with >50% inhibition in the female readout, 2µM
[6] = PfDGFA at 2µM, 24h preincubation with gametocytes prior to induction of gametogenesis
[7] = PfDGFA at 2µM, 24h preincubation
[8] = 2µM, 24h preincubation with gametocytes prior to induction of gametogenesis
[9] = 2µM, 24h preincubation, number of replicates with >50% inhibition in the male readout
[10] = 2µM, 24h preincubation, number of replicates with >50% inhibition in the female readout
[11] = 2µM, 24h preincubation, hits selected on >50% inhibition in the male readout across replicates
[12] = 2µM, 24h preincubation, hits selected on >50% inhibition in the female readout across replicates
[13] = 2µM, 24h preincubation with gametocytes

SMILES: CC(C)n1c(C(C)(C)C)cc2c3c(N)nc(N)nc3ccc21 [TCMDC-137311]
- Average inhibition male (%) [1, 3]: 66.3%
- % inhibition male (individual replicates) R1 [1, 3]: 58.8%
- % inhibition male (individual replicates) R3 [1, 3]: 70.2%
- % inhibition male (individual replicates) R4 [1, 3]: 54.6%
- HitlevelM [1, 4]: 4
- Average inhibition female (%) [2, 3]: -0.8%
- % inhibition female (individual replicates) R1 [2, 3]: -8.1%
- % inhibition female (individual replicates) R3 [2, 3]: 21.9%
- % inhibition female (individual replicates) R4 [2, 3]: -9.1%
- HitlevelF [2, 5]: 0

SMILES: COc1ccc2c(c1CCNCCCCNCCc1c(OC)ccc3c1CCCC3)CCCC2.CS(=O)(=O)O [TCMDC-137324]
- Average inhibition male (%) [1, 3]: 81.7%
- % inhibition male (individual replicates) R1 [1, 3]: 91.2%
- % inhibition male (individual replicates) R3 [1, 3]: 86.5%
- % inhibition male (individual replicates) R4 [1, 3]: 98.0%
- HitlevelM [1, 4]: 4
- Average inhibition female (%) [2, 3]: 79.4%
- % inhibition female (individual replicates) R1 [2, 3]: 79.9%
- % inhibition female (individual replicates) R3 [2, 3]: 84.0%
- % inhibition female (individual replicates) R4 [2, 3]: 85.5%
- HitlevelF [2, 5]: 4

SMILES: CC(C(=O)OCCOCn1cnc2c(=O)[nH]c(N)nc21)N(C)C(=O)OC(C)(C)C (centres unmarked) [TCMDC-137343]
- % inhibition male (individual replicates) R1 [1, 6]: 2.6%
- % inhibition male (individual replicates) R4 [1, 6]: -43.6%
- Average inhibition male (%) [1, 7]: -14.6%
- % inhibition female (individual replicates) R1 [2, 6]: 1.2%
- % inhibition female (individual replicates) R3 [2, 6]: -8.6%
- % inhibition female (individual replicates) R4 [2, 6]: 4.1%
- Average inhibition female (%) [2, 7]: -0.55%

SMILES: Cl.c1ccc2c(Nc3ccc(Cc4ccc(Nc5c6ccccc6nc6ccccc56)cc4)cc3)c3ccccc3nc2c1 [TCMDC-137354]
- Average inhibition male (%) [1, 8]: 52.9%
- % inhibition male (individual replicates) R1 [1, 8]: 49.4%
- % inhibition male (individual replicates) R3 [1, 8]: 55.5%
- % inhibition male (individual replicates) R4 [1, 8]: 71.3%
- HitlevelM [1, 9]: 2
- Average inhibition female (%) [2, 8]: 87.8%
- % inhibition female (individual replicates) R1 [2, 8]: 83.3%
- % inhibition female (individual replicates) R3 [2, 8]: 91.0%
- % inhibition female (individual replicates) R4 [2, 8]: 96.5%
- HitlevelF [2, 10]: 4

SMILES: Cl.c1ccc2c(Nc3ccc(OCCOCCOc4ccc(Nc5c6ccccc6nc6ccccc56)cc4)cc3)c3ccccc3nc2c1 [TCMDC-137355]
- Average inhibition male (%) [1, 8]: 37.2%
- % inhibition male (individual replicates) R1 [1, 8]: 36.9%
- % inhibition male (individual replicates) R3 [1, 8]: -1.4%
- % inhibition male (individual replicates) R4 [1, 8]: 40.2%
- HitlevelM [1, 9]: 1
- Average inhibition female (%) [2, 8]: 29.1%
- % inhibition female (individual replicates) R1 [2, 8]: 27.7%
- % inhibition female (individual replicates) R3 [2, 8]: 5.6%
- % inhibition female (individual replicates) R4 [2, 8]: 8.9%
- HitlevelF [2, 10]: 1

SMILES: COc1cc(Cc2cnc(N)nc2N)cc(OCCCC(=O)O)c1OC [TCMDC-137359]
- Average inhibition male (%) [1, 8]: 4.4%
- % inhibition male (individual replicates) R1 [1, 8]: 4.7%
- % inhibition male (individual replicates) R3 [1, 8]: 7.0%
- % inhibition male (individual replicates) R4 [1, 8]: 5.5%
- HitlevelM [1, 11]: 0
- Activity [1, 7]: 0
- Average inhibition female (%) [2, 8]: 3.8%
- % inhibition female (individual replicates) R1 [2, 8]: 8.3%
- % inhibition female (individual replicates) R3 [2, 8]: -22.8%
- % inhibition female (individual replicates) R4 [2, 8]: 31.0%
- HitlevelF [2, 12]: 0

SMILES: CCc1nc(N)nc(N)c1-c1cccc(Cl)c1 [TCMDC-137371]
- Average inhibition male (%) [1, 8]: -6.5%
- % inhibition male (individual replicates) R1 [1, 8]: 19.6%
- % inhibition male (individual replicates) R3 [1, 8]: -24.6%
- % inhibition male (individual replicates) R4 [1, 8]: -25.1%
- HitlevelM [1, 11]: 0
- Activity [1, 7]: 0
- Average inhibition female (%) [2, 8]: 4.1%
- % inhibition female (individual replicates) R1 [2, 8]: 14.2%
- % inhibition female (individual replicates) R3 [2, 8]: -6.6%
- % inhibition female (individual replicates) R4 [2, 8]: 5.2%
- HitlevelF [2, 12]: 0

SMILES: CCCc1cc(OC)c(CC2c3cc(O)c(Cl)cc3C(c3ccccc3)CN2C)cc1OC.Cl (centres unmarked) [TCMDC-137432]
- Average inhibition male (%) [1, 8]: 3.7%
- % inhibition male (individual replicates) R1 [1, 8]: 2.4%
- % inhibition male (individual replicates) R3 [1, 8]: -26.9%
- % inhibition male (individual replicates) R4 [1, 8]: 27.9%
- HitlevelM [1, 11]: 0
- Activity [1, 7]: 0
- Average inhibition female (%) [2, 8]: 7.6%
- % inhibition female (individual replicates) R1 [2, 8]: -2.1%
- % inhibition female (individual replicates) R3 [2, 8]: 40.4%
- % inhibition female (individual replicates) R4 [2, 8]: -8.9%
- HitlevelF [2, 12]: 0

SMILES: Cl.N=C(NCCCc1ccccc1)c1cccc(C(=N)NCCCc2ccccc2)n1 [TCMDC-137453]
- Average inhibition male (%) [1, 8]: 15.3%
- % inhibition male (individual replicates) R1 [1, 8]: 11.4%
- % inhibition male (individual replicates) R3 [1, 8]: -5.0%
- % inhibition male (individual replicates) R4 [1, 8]: 33.6%
- HitlevelM [1, 9]: 0
- Average inhibition female (%) [2, 8]: 26.7%
- % inhibition female (individual replicates) R1 [2, 8]: 21.1%
- % inhibition female (individual replicates) R3 [2, 8]: 29.3%
- % inhibition female (individual replicates) R4 [2, 8]: 27.4%
- HitlevelF [2, 10]: 0

SMILES: CC(CNC(=N)c1cccc(C(=N)NCC(C)Oc2cccc(C3CCCCC3)c2)n1)Oc1cccc(C2CCCCC2)c1.Cl (centres unmarked) [TCMDC-137455]
- Average inhibition male (%) [1, 3]: 81.3%
- % inhibition male (individual replicates) R1 [1, 3]: 90.7%
- % inhibition male (individual replicates) R3 [1, 3]: 87.0%
- % inhibition male (individual replicates) R4 [1, 3]: 101.3%
- HitlevelM [1, 4]: 3
- Average inhibition female (%) [2, 3]: 40.6%
- % inhibition female (individual replicates) R1 [2, 3]: 53.6%
- % inhibition female (individual replicates) R3 [2, 3]: 30.8%
- % inhibition female (individual replicates) R4 [2, 3]: 44.6%
- HitlevelF [2, 5]: 1

SMILES: N=C(NCC1CC1c1ccccc1)c1cccc(C(=N)NCC2CC2c2ccccc2)n1 (centres unmarked) [TCMDC-137456]
- Average inhibition male (%) [1, 3]: 66.3%
- % inhibition male (individual replicates) R1 [1, 3]: 75.4%
- % inhibition male (individual replicates) R3 [1, 3]: 23.0%
- % inhibition male (individual replicates) R4 [1, 3]: 81.6%
- HitlevelM [1, 4]: 3
- Average inhibition female (%) [2, 3]: 33.5%
- % inhibition female (individual replicates) R1 [2, 3]: 27.8%
- % inhibition female (individual replicates) R3 [2, 3]: 24.0%
- % inhibition female (individual replicates) R4 [2, 3]: 33.0%
- HitlevelF [2, 5]: 0

SMILES: CN1CCN(CCCCNc2c3ccccc3nc3ccccc23)CC1 [TCMDC-137479]
- Average inhibition male (%) [1, 8]: 37.9%
- % inhibition male (individual replicates) R1 [1, 8]: 56.6%
- % inhibition male (individual replicates) R3 [1, 8]: -27.6%
- % inhibition male (individual replicates) R4 [1, 8]: 45.6%
- HitlevelM [1, 9]: 2
- Average inhibition female (%) [2, 8]: 21.2%
- % inhibition female (individual replicates) R1 [2, 8]: 27.6%
- % inhibition female (individual replicates) R3 [2, 8]: -3.0%
- % inhibition female (individual replicates) R4 [2, 8]: 19.8%
- HitlevelF [2, 10]: 0

SMILES: CCC(=C(CC)c1ccc(O)c(CNC2CCCCC2)c1)c1ccc(O)c(CNC2CCCCC2)c1.Cl [TCMDC-137481]
- Average inhibition male (%) [1, 8]: 1.2%
- % inhibition male (individual replicates) R1 [1, 8]: -0.3%
- % inhibition male (individual replicates) R4 [1, 8]: 0.8%
- HitlevelM [1, 11]: 0
- Activity [1, 7]: 0
- Average inhibition female (%) [2, 8]: 5.6%
- % inhibition female (individual replicates) R1 [2, 8]: 2.3%
- % inhibition female (individual replicates) R3 [2, 8]: 13.0%
- % inhibition female (individual replicates) R4 [2, 8]: 6.2%
- HitlevelF [2, 12]: 0

SMILES: Nc1nc(Cc2ccc(Cl)cc2)nc(Cc2ccc(Cl)cc2)n1 [TCMDC-137497]
- % inhibition male (individual replicates) R1 [1, 6]: -13.6%
- % inhibition male (individual replicates) R3 [1, 6]: -49.6%
- % inhibition male (individual replicates) R4 [1, 6]: -34.5%
- Average inhibition male (%) [1, 7]: -26.4%
- % inhibition female (individual replicates) R1 [2, 6]: -4.6%
- % inhibition female (individual replicates) R3 [2, 6]: -30.4%
- % inhibition female (individual replicates) R4 [2, 6]: 8.0%
- Average inhibition female (%) [2, 7]: -6.5%

SMILES: COc1ccc(O)cc1Cc1cnc2nc(N)nc(N)c2c1C [TCMDC-137498]
- Average inhibition male (%) [1, 8]: -10.8%
- % inhibition male (individual replicates) R1 [1, 8]: 7.6%
- % inhibition male (individual replicates) R3 [1, 8]: -15.7%
- % inhibition male (individual replicates) R4 [1, 8]: -40.5%
- HitlevelM [1, 11]: 0
- Activity [1, 7]: 0
- Average inhibition female (%) [2, 8]: 6.7%
- % inhibition female (individual replicates) R1 [2, 8]: 14.0%
- % inhibition female (individual replicates) R3 [2, 8]: 17.6%
- % inhibition female (individual replicates) R4 [2, 8]: 8.3%
- HitlevelF [2, 12]: 0

SMILES: Clc1ccc(CNCCCCCCNCc2ccc(Cl)cc2)cc1.O=C(O)c1ccc2ccccc2c1O [TCMDC-137500]
- Average inhibition male (%) [1, 8]: 60.2%
- % inhibition male (individual replicates) R1 [1, 8]: 69.1%
- % inhibition male (individual replicates) R3 [1, 8]: 26.6%
- % inhibition male (individual replicates) R4 [1, 8]: 76.2%
- HitlevelM [1, 9]: 3
- Average inhibition female (%) [2, 8]: 9.2%
- % inhibition female (individual replicates) R1 [2, 8]: 13.6%
- % inhibition female (individual replicates) R3 [2, 8]: -5.3%
- % inhibition female (individual replicates) R4 [2, 8]: 22.1%
- HitlevelF [2, 10]: 0

SMILES: CCCN1CCN(CCNc2c3ccccc3nc3ccccc23)CC1 [TCMDC-137549]
- Average inhibition male (%) [1, 13]: 95.7%
- % inhibition male (individual replicates) R1 [1, 13]: 96.4%
- % inhibition male (individual replicates) R3 [1, 13]: 92.4%
- % inhibition male (individual replicates) R4 [1, 13]: 99.6%
- Average inhibition female (%) [2, 13]: 13.4%
- % inhibition female (individual replicates) R1 [2, 13]: 14.9%
- % inhibition female (individual replicates) R3 [2, 13]: 20.2%
- % inhibition female (individual replicates) R4 [2, 13]: 28.7%
